Measured values taken from patent US4418192A, “Anthracyclinone trisaccharide compounds” (priority 1981, dated 1983).
In brackets after ≈: the same amount, converted by molar mass. Where two headings read alike, the source gives them in different places.

Assays:
[1] = system: DNA synthesis in L 1210 cells; test: Inhibition of DNA synthesis in L 1210 cells (radioactive precursor incorporation); assay type: cell-based; conditions: Mus musculus
Method: (§1) For measurement of IC50 on the synthesis of nucleic acids, 5×10^5 L 1210 cells/ml were pre-cultured at 37° C. for 1-2 hours in RPMI 1640 medium containing 10% calf serum in a CO2 incubator. One of the anthracyclinone glycosides listed in Table 4 was added and incubated for a further 15 minutes. Then 0.05 μCi/ml of ^14 C-uridine or ^14 C-thymidine was added and incubated for a further 60 minutes. At the end of incorporation of the radioactive compound, 10% trichloroacetic acid was poured into the cell suspension for termination of the reaction as well as forced precipitation. The acid-insoluble fraction was collected, rinsed three times with 5% trichloroacetic acid and then dissolved in formic acid for measurement of radioactivity. Based on the radioactivities of the test and control runs, IC50 was calculated.

L 1210 leukemia cells = test: Inhibition of growth of L 1210 leukemia cells in culture; assay type: cell-based; conditions: Mus musculus, L1210, 48 h, read-out: IC50 Cell growth
Method: L 1210 culture cells (5×10^4 cells/ml; final cell concentration) were inoculated to RPMI 1640 medium (Roswell Park Memorial Institute 1640 medium) containing 20% calf serum and then one of the anthracyclinone glycosides listed in Table 4 was added to make a final concentration of 0.1-5 μg/ml. After incubation at 37° C. for 2 days in a CO2 incubator, the number of cells was counted. Based on these counts, the 50% inhibitory concentration (IC50) of each test compound on the growth of L 1210 leukemia cells was calculated relative to the control test.

L 1210 leukemia = test: Antitumor activity: prolongation of survival time of CDF1 mice after intraperitoneal transplantation of L 1210 leukemia cells; assay type: in vivo; conditions: Mus musculus, L1210, ip, 720 h, read-out: Prolongation rate of the survival time (T/C)
Method: After intraperitoneal transplantation of L 1210 leukemia cells (1×10^5 cells/mouse), 0.25 ml/animal of solutions of one of the anthracyclinone glycosides (HCl salts) of the present invention in physiological saline was intraperitoneally injected to CDF1 mice every day for 9 days.

[2] = system: RNA synthesis in L 1210 cells; test: Inhibition of RNA synthesis in L 1210 cells (radioactive precursor incorporation); assay type: cell-based; conditions: Mus musculus
Method: as §1

[3] = in words, cited from earlier work
[4] = L1210, read-out: IC50 DNA synthesis
[5] = L1210, read-out: IC50 RNA synthesis
[6] = L1210, L 1210 cells, 15 min pre-incubation, 60 min with radioactive precursor (^14 C-uridine or ^14 C-thymidine), read-out: IC50 DNA synthesis
[7] = L 1210 cells, RPMI 1640 with 20% calf serum, 37° C., 2 days
[8] = L1210, L 1210 cells, 15 min pre-incubation, 60 min with radioactive precursor (^14 C-uridine or ^14 C-thymidine), read-out: IC50 RNA synthesis

Row | Compound | response vs control in vivo at 2.5 mg/kg (L 1210 leukemia) | response vs control in vivo at 5 mg/kg (L 1210 leukemia) | IC50 [1, 6] | IC50 (L 1210 leukemia cells; [7]) | IC50 [2, 8] | response vs control in vivo at 1.25 mg/kg (L 1210 leukemia) | other results
1 | CC[C@@]1(O)C[C@H](O[C@H]2C[C@H](N(C)C)[C@H](O[C@H]3C[C@H](OC(C)=O)[C@H](O[C@H]4CCC(=O)[C@H](C)O4)[C@H](C)O3)[C@H](C)O2)c2c(cc3c(c2O)C(=O)c2c(O)cccc2C3=O)[C@H]1C(=O)OC [3"-O--acetyl AKN--RDC] | 114% | 168% | – | – | – | – | IC50 [1, 4]: 1.3 µg/mL (≈ 1.52 µM); IC50 (L 1210 leukemia cells): 0.06 µg/mL (≈ 0.0703 µM); response vs control in vivo at 7.5 mg/kg (L 1210 leukemia): 186%; response vs control in vivo at 10 mg/kg (L 1210 leukemia): 180%; IC50 [2, 5]: 0.1 µg/mL (≈ 0.117 µM)
2 | COc1cccc2c1C(=O)c1c(O)c3c(c(O)c1C2=O)C[C@@](O)(C(=O)CO)C[C@@H]3O[C@H]1C[C@H](N(C)C)[C@H](O[C@H]2C[C@H](OC(C)=O)[C@H](O[C@H]3CCC(=O)[C@H](C)O3)[C@H](C)O2)[C@H](C)O1 [3"-O--acetyl AMN--RDC] | – | – | 0.32 µg/mL (≈ 0.374 µM) | < 0.01 µg/mL | 0.012 µg/mL (≈ 0.014 µM) | – | response vs control in vivo at 0.32 mg/kg (L 1210 leukemia; 0.32 mg/kg/day, i.p. every day for 9 days, HCl salts, L 1210 i.p. in CDF1 mice, control = 100): 144%; response vs control in vivo at 0.63 mg/kg (L 1210 leukemia; 0.63 mg/kg/day, i.p. every day for 9 days, HCl salts, L 1210 i.p. in CDF1 mice, control = 100): 165%; response vs control in vivo at 1.25 mg/kg (L 1210 leukemia; 1.25 mg/kg/day, i.p. every day for 9 days, HCl salts, L 1210 i.p. in CDF1 mice, control = 100): 140%; response vs control in vivo at 2.5 mg/kg (L 1210 leukemia; 2.5 mg/kg/day, i.p. every day for 9 days, HCl salts, L 1210 i.p. in CDF1 mice, control = 100): 96%
3 | CC(=O)O[C@H]1C[C@H](O[C@@H]2[C@H](C)O[C@@H](O[C@H]3C[C@](O)(C(C)=O)Cc4c(O)c5c(c(O)c43)C(=O)c3c(O)cccc3C5=O)C[C@@H]2N(C)C)O[C@@H](C)[C@H]1O[C@H]1CCC(=O)[C@H](C)O1 [3"-O--acetyl CMN--RDC] | 159% | 208% | 0.36 µg/mL (≈ 0.436 µM) | < 0.01 µg/mL | 0.04 µg/mL (≈ 0.0484 µM) | 124% | response vs control in vivo at 7.5 mg/kg (L 1210 leukemia): 214%; response vs control in vivo at 10 mg/kg (L 1210 leukemia): 165%
4 | COc1cccc2c1C(=O)c1c(O)c3c(c(O)c1C2=O)C[C@@](O)(C(C)=O)C[C@@H]3O[C@H]1C[C@H](N(C)C)[C@H](O[C@H]2C[C@H](OC(C)=O)[C@H](O[C@H]3CCC(=O)[C@H](C)O3)[C@H](C)O2)[C@H](C)O1 [3"-O--acetyl DMN--RDC] | 180% | 210% | 0.3 µg/mL (≈ 0.357 µM) | < 0.01 µg/mL | 0.02 µg/mL (≈ 0.0238 µM) | 144% | response vs control in vivo at 0.63 mg/kg (L 1210 leukemia): 114%; response vs control in vivo at 7.5 mg/kg (L 1210 leukemia): 164%
5 | COc1cccc2c1C(=O)c1c(O)c3c(c(O)c1C2=O)C[C@@](O)(C(=O)COC(C)=O)C[C@@H]3O[C@H]1C[C@H](N(C)C)[C@H](O[C@H]2C[C@H](OC(C)=O)[C@H](O[C@H]3CCC(=O)[C@H](C)O3)[C@H](C)O2)[C@H](C)O1 [14,3"-O--diacetyl AMN--RDC] | – | – | – | – | – | – | IC50 [1, 4]: 0.5 µg/mL (≈ 0.557 µM); IC50 (L 1210 leukemia cells): < 0.01 µg/mL; IC50 [2, 5]: 0.014 µg/mL (≈ 0.0156 µM)
6 | COc1cccc2c1C(=O)c1c(O)c3c(c(O)c1C2=O)C[C@@](O)(C(=O)COC(=O)Cc1ccccc1)C[C@@H]3O[C@H]1C[C@H](N(C)C)[C@H](O[C@H]2C[C@H](OC(C)=O)[C@H](O[C@H]3CCC(=O)[C@H](C)O3)[C@H](C)O2)[C@H](C)O1 [14-O--phenylacetyl-3"-O--acetyl AMN--RDC] | – | – | 4 µg/mL (≈ 4.11 µM) | 0.03 µg/mL (≈ 0.0308 µM) | 0.15 µg/mL (≈ 0.154 µM) | – | –
7 | COc1cccc2c1C(=O)c1c(O)c3c(c(O)c1C2=O)C[C@@](O)(C(=O)CO)C[C@@H]3O[C@H]1C[C@H](N(C)C)[C@H](O[C@H]2C[C@H](O)[C@H](O[C@H]3CCC(=O)[C@H](C)O3)[C@H](C)O2)[C@H](C)O1 [AMN--RDC] | 145% | 130% | 0.15 µg/mL (≈ 0.184 µM) | < 0.01 µg/mL | 0.011 µg/mL (≈ 0.0135 µM) | 158% | response vs control in vivo at 0.32 mg/kg (L 1210 leukemia): 114%; response vs control in vivo at 0.63 mg/kg (L 1210 leukemia): 142%
8 | CC[C@@]1(O)C[C@H](O[C@H]2C[C@H](N(C)C)[C@H](O[C@H]3C[C@H](O)[C@H](O[C@H]4CCC(=O)[C@H](C)O4)[C@H](C)O3)[C@H](C)O2)c2c(cc3c(c2O)C(=O)c2c(O)cccc2C3=O)[C@H]1C(=O)OC [Aclacinomycin A, reference compound] | – | – | 0.65 µg/mL (≈ 0.801 µM) | 0.03 µg/mL (≈ 0.037 µM) | 0.085 µg/mL (≈ 0.105 µM) | – | cardio-toxicity ([3]; U.S. Pat. No. 3,988,315 and Jap. P. No. 864,851): less cardio-toxic
9 | COc1cccc2c1C(=O)c1c(O)c3c(c(O)c1C2=O)C[C@@](O)(C(=O)CO)C[C@@H]3O[C@H]1C[C@H](N)[C@H](O)[C@H](C)O1 [Adriamycin, reference compound] | – | – | 1.25 µg/mL (≈ 2.3 µM) | 0.018 µg/mL (≈ 0.0331 µM) | 0.49 µg/mL (≈ 0.902 µM) | – | side effects ([3]; clinical use as antitumor chemotherapeutics): often cause undesirable side effects
10 | CC(=O)[C@]1(O)Cc2c(O)c3c(c(O)c2[C@@H](O[C@H]2C[C@H](N(C)C)[C@H](O[C@H]4C[C@H](O)[C@H](O[C@H]5CCC(=O)[C@H](C)O5)[C@H](C)O4)[C@H](C)O2)C1)C(=O)c1c(O)cccc1C3=O [CMN--RDC] | 160% | 180% | 0.19 µg/mL (≈ 0.242 µM) | < 0.01 µg/mL | 0.035 µg/mL (≈ 0.0447 µM) | 132% | response vs control in vivo at 7.5 mg/kg (L 1210 leukemia): 145%
11 | COc1cccc2c1C(=O)c1c(O)c3c(c(O)c1C2=O)C[C@@](O)(C(C)=O)C[C@@H]3O[C@H]1C[C@H](N)[C@H](O[C@H]2C[C@H](O)[C@H](O[C@H]3CCC(=O)[C@H](C)O3)[C@H](C)O2)[C@H](C)O1 [DMN--DaDC] | – | – | 1.15 µg/mL (≈ 1.49 µM) | 0.09 µg/mL (≈ 0.117 µM) | 0.165 µg/mL (≈ 0.214 µM) | – | –
12 | CN[C@H]1C[C@H](O[C@H]2C[C@](O)(C(C)=O)Cc3c(O)c4c(c(O)c32)C(=O)c2c(OC)cccc2C4=O)O[C@@H](C)[C@H]1O[C@H]1C[C@H](O)[C@H](O[C@H]2CCC(=O)[C@H](C)O2)[C@H](C)O1 [DMN--DmDC] | – | – | – | – | – | – | IC50 [1, 4]: 0.62 µg/mL (≈ 0.791 µM); IC50 (L 1210 leukemia cells): 0.023 µg/mL (≈ 0.0293 µM); IC50 [2, 5]: 0.065 µg/mL (≈ 0.0829 µM)
13 | COc1cccc2c1C(=O)c1c(O)c3c(c(O)c1C2=O)C[C@@](O)(C(C)=O)C[C@@H]3O[C@H]1C[C@H](N(C)C)[C@H](O[C@H]2C[C@H](O)[C@H](O[C@H]3CCC(=O)[C@H](C)O3)[C@H](C)O2)[C@H](C)O1 [DMN--RDC] | 187% | 126% | 0.17 µg/mL (≈ 0.213 µM) | < 0.01 µg/mL | 0.017 µg/mL (≈ 0.0213 µM) | 184% | response vs control in vivo at 0.32 mg/kg (L 1210 leukemia): 126%; response vs control in vivo at 0.63 mg/kg (L 1210 leukemia): 135%
14 | COc1cccc2c1C(=O)c1c(O)c3c(c(O)c1C2=O)C[C@@](O)(C(C)=O)C[C@@H]3O[C@H]1C[C@H](N(C)C)[C@H](O[C@H]2C[C@H](O)[C@H](O)[C@H](C)O2)[C@H](C)O1 [DMN--RD] | 165% | 120% | 0.28 µg/mL (≈ 0.408 µM) | < 0.01 µg/mL | 0.04 µg/mL (≈ 0.0583 µM) | 172% | response vs control in vivo at 0.32 mg/kg (L 1210 leukemia): 114%; response vs control in vivo at 0.63 mg/kg (L 1210 leukemia): 144%
15 | COc1cccc2c1C(=O)c1c(O)c3c(c(O)c1C2=O)C[C@@](O)(C(C)=O)C[C@@H]3O[C@H]1C[C@H](N)[C@H](O)[C@H](C)O1 [Daunomycin, reference compound] | – | – | 0.3 µg/mL (≈ 0.569 µM) | 0.036 µg/mL (≈ 0.0682 µM) | 0.18 µg/mL (≈ 0.341 µM) | – | –
